From patent US5349127A, “Expression of herbicide metabolizing cytochromes P450” (priority 1992, dated 1994)

Key:
[1] = tested on: Tomato seedlings (Lysopersicon esculentum cv. Pixie); assay: Tomato transplants in sulfonylurea-treated soil after dipping in water, YEME or S. lividans culture (Example 13); assay type: in vivo; details: for Mean value of visual ratings / Visual Injury Ratings of individual transplanted tomatoes: 19 DAT
Protocol: A 2 liter culture of S. lividans pCAO200SU1-FeS-B#9 was grown in YEME medium at 30° C. until the culture was in […] log phase of growth and the absorbance in a spectrophotometer at a wavelength of 600 nm was between about 1.0 and 1.3. Tomato seedlings (Lysopersicon esculentum cv. "Pixie") were seeded directly into soiless media, Oasis Wedges® (Smithers-Oasis, Kent, Ohio), fertilized with 500 ppm Peters'® fertilizer (20:19:18); and 300 ppm of iron was added weekly. As the tomato plants develop, roots ramify through the Oasis Wedges®. The tomato plants were transplanted to pots when they were 4 inches tail as follows.
Five inch standard round pots (without holes) were filled with Sassafras sandy loam (pH 6.7, 0.8% OM) and an oasis cube. The contents of the each pot was sprayed, prior to transplanting the tomato plants, with either 10001, in 25% dry flowable composition (25 DF) or 10010, 75 DF at rates of 16, 32, 64, 125 or 250 grams of active ingredient per hectare (g ai/ha). The Oasis cube was then removed and replaced by another containing a transplant tomato plant dipped in either water (treatment A), YEME medium (treatment B)-or the culture of S. lividans pCAO200SU1-FeS-B#9 described above (treatment C). Six transplant tomato plants received each of the three treatments, and five transplant tomato plants (to serve as controls) received no treatment. The resulting tomato plants were grown in a greenhouse for 19 days and watered twice daily, after which they were evaluated for visual injury (100=complete kill, other numbers=percentage of injury relative to controls [subjectively determined], 0=no injury) with respect to the water dipped, no-herbicide control treatments. The plants were left in the greenhouse for one more week after which the fresh weights of the shoots of the plants were determined. The roots of the plants which received these treatments and controls were examined too.

S. griseus PH4001 = assay: Metabolism of 10001 by untransformed strain (Example 14); assay type: in vitro ADME, Streptomyces griseus; details: substrate 10001 120 ug/ml
S. ambofaciens PH4002 = assay: as above; assay type: in vitro ADME, Streptomyces ambofaciens; details: substrate 10001 120 ug/ml
S. lividans C37 = assay: Metabolism of 10001 in growing culture, HPLC of supernatant (Example 4); assay type: in vitro ADME, Streptomyces lividans; details: 0.12 mg/ml 10001 in culture
Protocol: Herbicides and their metabolites are measured by HPLC as described by Romesser et al., BBRC 140: 650-659 (1986), herein incorporated by reference, except that 0.1% H3 PO4 is used in both solvents. Chromatographic identity and quantitation of the herbicides and their resulting metabolites is determined by comparing them chromatographically with authentic standard compounds. Identity of the resulting metabolites is also confirmed by UV spectroscopy.
Separate cultures (50 ml) inoculated with S. lividans C37, S. lividans transformed with pCAO400 or S. lividans transformed with pCAO401 in sporulation broth containing 0.12 mg/ml of 10001 were grown with shaking at 30° C. Aliquots (1.5 ml) of each culture were removed at 24, 32, 48 and 56 hours after inoculation and the supernatant of each aliquot was analyzed by HPLC for its concentration of 10001 and its metabolites 10002 or 10003.

[2] = 16 g ai/ha, Treatment A (water)
[3] = 16 g ai/ha, Treatment A (water), scale 0-100
[4] = 16 g ai/ha, Treatment B (YEME), scale 0-100
[5] = 16 g ai/ha, Treatment C (pCAO200SU1-FeS-B#9)
[6] = 16 g ai/ha, Treatment C (pCAO200SU1-FeS-B#9), scale 0-100
[7] = 32 g ai/ha, Treatment A (water)
[8] = 32 g ai/ha, Treatment A (water), scale 0-100
[9] = 32 g ai/ha, Treatment B (YEME), scale 0-100
[10] = 32 g ai/ha, Treatment C (pCAO200SU1-FeS-B#9)
[11] = 32 g ai/ha, Treatment C (pCAO200SU1-FeS-B#9), scale 0-100
[12] = 64 g ai/ha, Treatment A (water), scale 0-100
[13] = 64 g ai/ha, Treatment B (YEME), scale 0-100
[14] = 64 g ai/ha, Treatment C (pCAO200SU1-FeS-B#9), scale 0-100
[15] = 125 g ai/ha, Treatment A (water), scale 0-100
[16] = 125 g ai/ha, Treatment B (YEME), scale 0-100
[17] = 125 g ai/ha, Treatment C (pCAO200SU1-FeS-B#9), scale 0-100
[18] = 250 g ai/ha, Treatment A (water), scale 0-100, 100 = complete kill
[19] = 250 g ai/ha, Treatment B (YEME), scale 0-100
[20] = 250 g ai/ha, Treatment C (pCAO200SU1-FeS-B#9), scale 0-100

CCOC(=O)c1ccccc1S(=O)(=O)NC(=O)Nc1nc(Cl)cc(OC)n1 [compound 10001, N-[(4-chloro-6-methoxy-pyrimidin-2-yl)aminocarbonyl]-2-ethoxycarbonylbenzenesulfonamide]
Mean Shoot Fresh Weights [1, 2]: 3.25 grams | Mean value of visual ratings [1, 3]: 43.3 | Mean Shoot Fresh Weights ([1]; 16 g ai/ha, Treatment B (YEME)): 2.35 grams | Mean value of visual ratings [1, 4]: 51.7 | Mean Shoot Fresh Weights [1, 5]: 3.1 grams | Mean value of visual ratings [1, 6]: 40 | Mean Shoot Fresh Weights [1, 7]: 2.49 grams | Mean value of visual ratings [1, 8]: 68.3 | Mean Shoot Fresh Weights ([1]; 32 g ai/ha, Treatment B (YEME)): 1.76 grams | Mean value of visual ratings [1, 9]: 58.3 | Mean Shoot Fresh Weights [1, 10]: 3.37 grams | Mean value of visual ratings [1, 11]: 50 | visual injury, treatment C versus treatments A or B ([1]; 64, 125, and 250 g ai/ha): significantly less injured | Mean Shoot Fresh Weights ([1]; 64 g ai/ha, Treatment A (water)): 1.37 grams | Mean value of visual ratings [1, 12]: 66.7 | Mean Shoot Fresh Weights ([1]; 64 g ai/ha, Treatment B (YEME)): 1.40 grams | Mean value of visual ratings [1, 13]: 63.3 | Mean Shoot Fresh Weights ([1]; 64 g ai/ha, Treatment C (pCAO200SU1-FeS-B#9)): 2.94 grams | Mean value of visual ratings [1, 14]: 43.3 | Shoot weight, dipped in pCAO200SU1-FeS-B#9 culture versus water or YEME ([1]; 125 g ai/ha): 2-3 times | Mean Shoot Fresh Weights ([1]; 125 g ai/ha, Treatment A (water)): 0.80 grams | Mean value of visual ratings [1, 15]: 90 | Mean Shoot Fresh Weights ([1]; 125 g ai/ha, Treatment B (YEME)): 1.06 grams | Mean value of visual ratings [1, 16]: 70 | Mean Shoot Fresh Weights ([1]; 125 g ai/ha, Treatment C (pCAO200SU1-FeS-B#9)): 2.72 grams | Mean value of visual ratings [1, 17]: 50 | Shoot weight, dipped in pCAO200SU1-FeS-B#9 culture versus water or YEME ([1]; 250 g ai/ha): 3-4 times greater | Mean Shoot Fresh Weights ([1]; 250 g ai/ha, Treatment A (water)): 0.63 grams | Mean value of visual ratings [1, 18]: 91.7 | Mean Shoot Fresh Weights ([1]; 250 g ai/ha, Treatment B (YEME)): 0.40 grams | Mean value of visual ratings [1, 19]: 81.7 | Mean Shoot Fresh Weights ([1]; 250 g ai/ha, Treatment C (pCAO200SU1-FeS-B#9)): 2.41 grams | Mean value of visual ratings [1, 20]: 50.0 | concentration in supernatant (S. griseus PH4001; 1.0 h): 370 µM | concentration in supernatant (S. griseus PH4001; 4.0 h): 377 µM | concentration in supernatant (S. ambofaciens PH4002; 1.0 h): 406 µM | concentration in supernatant (S. ambofaciens PH4002; 4.0 h): 412 µM | concentration in supernatant (S. lividans C37; 0 h): 325 µM | concentration in supernatant (S. lividans C37; 24 h): 320 µM | concentration in supernatant (S. lividans C37; 32 h): 295 µM | concentration in supernatant (S. lividans C37; 48 h): 281 µM | concentration in supernatant (S. lividans C37; 56 h): 280 µM

COc1cc(Cl)nc(NC(=O)NS(=O)(=O)c2ccccc2C(=O)O)n1 [compound 10003, N-[(4-chloro-6-methoxy-pyrimidin-2-yol)aminocarbonyl]-2-carboxybenzenesulfonamide]
concentration in supernatant (S. griseus PH4001; 1.0 h): 1 µM | concentration in supernatant (S. griseus PH4001; 4.0 h): 4 µM | concentration in supernatant (S. ambofaciens PH4002; 1.0 h): 0 µM | concentration in supernatant (S. ambofaciens PH4002; 4.0 h): 0 µM | concentration in supernatant (S. lividans C37; 0 h): 0 µM | concentration in supernatant (S. lividans C37; 24 h): 0 µM | concentration in supernatant (S. lividans C37; 32 h): 0 µM | concentration in supernatant (S. lividans C37; 48 h): 3 µM | concentration in supernatant (S. lividans C37; 56 h): 3 µM

COC(=O)c1ccccc1S(=O)(=O)NC(=O)Nc1nc(C)cc(C)n1 [compound 10010, N-[(4,6-dimethylpyrimidin-2-yl)aminocarbonyl]-2-methoxycarbonylbenzenesulfonamide]
Mean Shoot Fresh Weights [1, 2]: 1.28 grams | Mean value of visual ratings [1, 3]: 70.0 | Mean Shoot Fresh Weights ([1]; 16 g ai/ha, Treatment B (YEME)): 1.58 grams | Mean value of visual ratings [1, 4]: 63.3 | Mean Shoot Fresh Weights [1, 5]: 2.10 grams | Mean value of visual ratings [1, 6]: 60 | Mean Shoot Fresh Weights [1, 7]: 0.65 grams | Mean value of visual ratings [1, 8]: 93.3 | Visual Injury Ratings of individual transplanted tomatoes [1, 8]: 100,100,100 | Mean Shoot Fresh Weights ([1]; 32 g ai/ha, Treatment B (YEME)): 1.60 grams | Mean value of visual ratings [1, 9]: 66.7 | Mean Shoot Fresh Weights [1, 10]: 1.79 grams | Mean value of visual ratings [1, 11]: 56.7 | Mean value of visual ratings [1, 12]: 90.0 | Visual Injury Ratings of individual transplanted tomatoes [1, 12]: 80,100,100 | Mean value of visual ratings [1, 13]: 83.3 | Mean value of visual ratings [1, 14]: 86.7 | Visual Injury Ratings of individual transplanted tomatoes [1, 14]: 60,100,100 | Mean value of visual ratings [1, 15]: 91.7 | Visual Injury Ratings of individual transplanted tomatoes [1, 15]: 90,100,100 | Mean value of visual ratings [1, 16]: 83.3 | Mean value of visual ratings [1, 17]: 76.7 | Visual Injury Ratings of individual transplanted tomatoes ([1]; 250 g ai/ha, Treatment A (water), scale 0-100): 90,100,100 | Mean value of visual ratings [1, 18]: 95.0 | Mean value of visual ratings [1, 19]: 86.7 | Mean value of visual ratings [1, 20]: 85 | visual injury across treatments A, B, C ([1]; all rates): injured to similar extents regardless of the treatment they received
